Results as given in patent publication US20090137784A1, “Epidermal Growth Factor Receptor Polypeptides and Antibodies” (priority 2005, published 2009).
*: point of attachment. Biotin = O=C1N[C@H]2[C@H](CS[C@H]2CCCCC(=O)*)N1

Assays:
Format in all cases: cell-based
EGFR [1] = target: T1, EGFR (Homo sapiens, UniProt P00533); experiment: Biotinylated cyclic polypeptides tested for inhibition of EGFR phosphorylation in a model HMEC cell system; conditions: biotinylated cyclic polypeptide
T1 construct: endogenous in cells; host or cells: 184A1 human mammary epithelial cells (parental HMEC); also 24H HMEC line (overexpresses HER2)
Source text: We selected amino acid sequences corresponding to fragments of Domain II and Domain IV of EGFR. The sequence of each polypeptide is shown in the first column of Table 1. The polypeptides were chosen based on their positions on the crystal structures of monomeric and dimeric EGFR (Burgess et al, Mol. Cell. 12:541-552, 2003). Although Domain IV of EGFR is not resolved in the dimer crystal structure, it is believed that portions of Domain IV come into contact upon dimerization. […] We generated biotinylated cyclic polypeptides that included each sequence and tested them in a model HMEC cell system. The sequences of the biotinylated cyclic polypeptides are shown in the third column of Table 1. […] For the LYNPTTYQMD polypeptide, the different results obtained from polypeptide and polyclonal antisera inhibition could be due to differences in the quantitative details of the assays, or the polypeptide could have a lower affinity for the receptor than the polyclonal antisera does.

EGFR [2] = target: T1, EGFR; experiment: Quantitative Western blot of EGFR tyrosine 1173 phosphorylation in HMECs treated with rabbit polyclonal antisera; conditions: for relative EGFR tyrosine 1173 phosphorylation: HMECs, 2 hours with antisera, then 25 nM EGF for 5 minutes, FIG. 1; for Polyclonal antisera inhibition (EGFR phosphorylation): rabbit polyclonal antisera, 184A1 human mammary epithelial cells
Description: Anti-domain II and anti-domain IV rabbit polyclonal antisera were generated against polypeptides LYNPTTYQMD (SEQ ID NO: 1) and MGENNT (SEQ ID NO:4). Briefly, rabbits were injected with one of the peptides, and the resulting antisera were collected. The rabbit sera were purified by ammonium sulfate precipitation followed by desalting. These polyclonal antisera were then used to treat human mammary epithelial cells (HMECs) and to measure the antisera's effect on EGFR tyrosine 1173 phosphorylation by quantitative Western blot analysis. HMECs were grown to 80% confluence and incubated for 2 hours in serum-free media containing various concentrations of the rabbit polyclonal antisera. The cells were then washed and incubated with 25 nM EGF for 5 minutes. The cells were lysed, and the proteins in the lysate were run on a SDS-PAGE gel and transferred onto PDVF membranes. Blots were detected using an anti-EGFR phosphotyrosine 1173 antibody and horseradish peroxidase, and band intensity was quantified using Kodak® 1D 3.5 software. The results are shown in FIG. 1 as relative EGFR tyrosine 1173 phosphorylation in the presence of varying concentrations of polyclonal antisera. The tyrosine phosphorylation in the presence of antiserum has been normalized by total EGFR intensity and tyrosine phosphorylation in the absence of antiserum.
Additional quantitative Western blot analysis was performed to examine EGFR 1173 tyrosine phosphorylation and HER21248 tyrosine phosphorylation in normal, parental HMECs, as well as a 24H HMEC line which overexpresses HER2 (Hendriks et al., Cancer Res. 63:1130-1137, 2003). Western blot analysis was described as above, and the results are depicted in FIGS. 3-6. […] P DII and P DIV are the polyclonal antisera against polypeptides LYNPTTYQMD (SEQ ID NO:1) and MGENNT (SEQ ID NO:4), respectively. For comparison, P 225 is a commercially purchased monoclonal antibody that blocks EGFR ligand binding (Sato et al., Mol. Biol. Med. 1:511-529, 1983). Negative controls are indicated by a (−). […] FIGS. 5 and 6 show relative HER2 1248 tyrosine phosphorylation in parental and 24H HMECs, respectively. The results in FIGS. 3-6 indicate that antibodies that bind to polypeptides LYNPTTYQMD (SEQ ID NO:1) and MGENNT (SEQ ID NO:4) of EGFR can reduce both EGFR and HER2 phosphorylation in normal HMECs, as well as those overexpressing HER2.

[3] = target: T2, heterodimerization of HER2 with EGFR (Homo sapiens, UniProt P00533); experiment: Co-immunoprecipitation of HER2 with EGFR from HMEC lysates; conditions: HMECs, antiserum 0.1 and 1 μM; FIG. 2
T2 construct: EGFR in each sample was immunoprecipitated from HMEC lysates using an anti-EGFR antibody; endogenous in cells; host or cells: HMEC (human mammary epithelial cells)
Description: Next, we analyzed the amount of HER2 co-immunoprecipitated with EGFR in the presence and absence of rabbit polyclonal antiserum against peptide MGENNT. HMECs were treated as before with the antiserum. EGFR in each sample was immunoprecipitated from HMEC lysates using an anti-EGFR antibody obtained from Santa Cruz Biotechnology, Inc. Immunoprecipitates were resolved by SDS-PAGE and blotted with anti-HER2 antibody (Cell Signaling). The results are depicted in FIG. 2, where N is the non-EGF stimulated negative control, P is the cells with no rabbit antisera incubation, and 0.1 and 1 are the concentrations of rabbit polyclonal antisera in μM.

| Substance | Peptide Inhibition (EGFR phosphorylation) (EGFR [1]) | relative EGFR tyrosine 1173 phosphorylation (EGFR [2]) | Polyclonal antisera inhibition (EGFR phosphorylation) (EGFR [2]) | HER2 co-immunoprecipitated with EGFR [3] |
| --- | --- | --- | --- | --- |
| LYNPTTYQMD [Biotin-GCGLYNPTTYQMDGCG-CONH2] | No |  |  |  |
| LVWKYADAG [Biotin-GCLVWKYADAGCG-CONH2] | Yes |  |  |  |
| Biotin-GCGLYNPTTYQMDGCG-NH2 (cysteine pairing not given here) |  | decrease the tyrosine phosphorylation of EGFR | Yes |  |
| CRNVSRGREC [Biotin-GCRNVSRGRECG- CONH2] | Yes |  |  |  |
| CAHYIDGPHC [Biotin-GCAHYIDGPHCG-CONH2] | Yes |  |  |  |
| Biotin-Aha-CMGENNTG-CONH2 | Yes | decrease the tyrosine phosphorylation of EGFR | Yes | less HER2 is co-immunoprecipitated with EGFR |
